Test results from patent US20050187184A1, “Antineoplastic combinations” (Wyeth, priority 2001, published 2005).
Counter-ions that a name gives are not always drawn.

Experiments:
human colon line GC3 = assay: human colon (GC3) mouse xenograft test procedure; assay type: in vivo; details: gemcitabine on days 1, 4 and 8 in the first cycle
Protocol: Female CBA/CaJ mice (Jackson Laboratories, Bar Harbor, Me.), 4 weeks of age, were immune-deprived by thymectomy, followed 3 weeks later by whole-body irradiation (1200 cGy) using a ^137Cs source. Mice received 3×10^6 nucleated bone marrow cells within 6-8 h of irradiation. Tumor pieces of approximately 3 mm^3 were implanted in the space of the dorsal lateral flanks of the mice to initiate tumor growth. Tumor-bearing mice were randomized into groups of seven prior to initiating therapy. Mice bearing tumors each received drug when tumors were approximately 0.20-1 cm in diameter. Tumor size was determined at 7-day intervals using digital Vernier calipers interfaced with a computer. Tumor volumes were calculated assuming tumors to be spherical using the formula [(□/6)×d^3], where d is the mean diameter. CCI-779 was given on a schedule of 5 consecutive days for 2 weeks with this cycle repeated every 21 days for 3 cycles. […] The schedule of the other chemotherapy drug for each study was as follows: • Gemcitabine on days 1, 4, 8 in cycle 1 only The combination of CCI-779 and gemcitabine was evaluated in a human colon (GC3) mouse xenograft test procedure. In this test procedure, CCI-779 was given daily ×5 for 2 consecutive weeks every 21 days for 3 cycles and gemcitabine given on days 1, 4, and 8 in the first cycle only.

orthotopic glioma = details: nude mice; cited from earlier work
human pancreatic tumors = details: several human pancreatic tumors in nude mice; cited from earlier work
[1] = tested on: human tumor xenografts of diverse histological types; details: nude mice; cited from earlier work
breast cancer lines = details: one of two breast cancer lines studied in vivo; cited from earlier work
[2] = tested on: human glioblastoma cell line; details: in vitro; cited from earlier work
[3] = tested on: histologically diverse tumor cells; details: cited from earlier work

Row | Structure (SMILES) | tumor response in the first cycle (human colon line GC3) | activity in orthotopic glioma model (orthotopic glioma) | tumor growth (human pancreatic tumors) | activity against human tumor xenografts [1] | sensitivity of gliomas [1] | tumor growth (breast cancer lines) | growth factor (platelet-derived)-induced stimulation [2] | growth of tumor cells in vitro ([3]; CNS cancer, leukemia (T-cell), breast cancer, prostate cancer and melanoma lines among the most sensitive) | cell cycle effect ([3]; in vitro)
1 | Nc1ccn([C@@H]2O[C@H](CO)[C@@H](O)C2(F)F)c(=O)n1 [gemcitabine, 2′-deoxy-2′,2′-difluorocytidine monohydrochloride ((beta)-isomer)] | tumor regression | – | – | – | – | – | – | – | –
2 | CO[C@H]1C[C@@H]2CC[C@@H](C)[C@@](O)(O2)C(=O)C(=O)N2CCCC[C@H]2C(=O)O[C@H]([C@H](C)C[C@@H]2CC[C@@H](OC(=O)C(C)(CO)CO)[C@H](OC)C2)CC(=O)[C@H](C)/C=C(\C)[C@@H](O)[C@@H](OC)C(=O)[C@H](C)C[C@H](C)/C=C/C=C/C=C/1C [CCI-779, Rapamycin 42-ester with 3-hydroxy-2-(hydroxymethyl)-2-methylpropionic acid] | – | active | inhibited | has activity | particularly sensitive | inhibited | markedly suppressed | inhibit the growth | arrested cells in the G1 phase
